Drawing on US10350206B2, “Benzyl substituted indazoles as BUB1 inhibitors” (Bayer Pharma Aktiengesellschaft, priority 2014, dated 2019), this text covers IC50 for nine molecules.

SMILES strings stand for the structures. Bounds are passed on as bounds.

The target of assay [1] is T1, catalytic domain of human Bub1 (amino acids 704-1085) (Homo sapiens, UniProt O43683).
T1 construct: catalytic domain of human Bub1 (amino acids 704-1085); His6 (N); made in house; host or cells: Hi5 insect cells
Description: Bub1 kinase assay (TR-FRET). The following applies: 10 μM ATP, 60 min reaction, pH 7.5; read-out: Biological Assay 1: Bub1 kinase assay median IC50. The assay is classed as biochemical. As to the method: To this end, 100-fold concentrated compound solutions (in DMSO) were previously prepared by serial dilution (1:3.4) of 2 mM stocks in a clear low volume 384-well source microtiter plate (Greiner Bio-One, Frickenhausen, Germany), from which 50 nL of compounds were transferred into a black low volume test microtiter plate from the same supplier. […] The resulting mixture (5 μL final volume) was incubated at 22° during 60 min., and the reaction was stopped by the addition of 5 μL of an aqueous EDTA-solution (50 mM EDTA, in 100 mM HEPES pH 7.5 and 0.2% (w/v) bovine serum albumin) which also contained the TR-FRET detection reagents (0.2 μM streptavidin-XL665 [Cisbio Bioassays, Codolet, France] and 1 nM anti-phosho-Serine antibody [Merck Millipore, cat. #35-001] and 0.4 nM LANCE EU-W1024 labeled anti-mouse IgG antibody [Perkin-Elmer, product no. AD0077, alternatively a Terbium-cryptate-labeled anti-mouse IgG antibody from Cisbio Bioassays can be used]). The stopped reaction mixture was further incubated 1 h at 22° C. in order to allow the formation of complexes between peptides and detection reagents. Subsequently, the amount of product was evaluated by measurement of the resonance energy transfer from the Eu-chelate-antibody complex recognizing the Phosphoserine residue to the streptavidin-XL665 bound to the biotin moiety of the peptide. […] IC50 values were calculated by fitting the normalized inhibition data to a 4-parameter logistic equation (Minimum, Maximum, IC50, Hill; Y=Max+(Min−Max)/(1+(X/IC50)Hill)).

Assay [2] relates to HeLa human cervical tumor cells. Description: Proliferation assay (HeLa cell line). The conditions noted are these: 96 h, 4 days incubation, crystal violet, read-out: Biological Assay 2: Proliferation assay (HeLa cell line) median IC50. It is filed as cell-based. As to the method:
Human tumour cells were originally obtained from the American Type Culture Collection (ATCC), the Deutsche Sammlung von Mikroorganismen und Zellkulturen (DSMZ, German Collection of Microorganisms and Cell Cultures), or Epo GmbH Berlin. Cultivated HeLa human cervical tumor cells (DSMZ ACC-57) were plated at a density of 3000 cells/well in a 96-well multititer plate in 200 μL of growth medium supplemented 10% fetal calf serum. After 24 hours, the cells of one plate (zero-point plate) were stained with crystal violet (see below), while the medium of the other plates was supplemented with the test substances in various concentrations (0 μM, as well as in the range of 0.001-10 μM; the final concentration of the solvent dimethyl sulfoxide was adjusted to 0.1%) using a Hewlett-Packard HP D300 Digital Dispenser. The cells were incubated for 4 days in the presence of test substances. […] After three washing cycles of the fixed cells with water, the plates were dried at room temperature. The cells were stained by adding 100 μL/measuring point of a 0.1% crystal violet solution (pH 3.0). After three washing cycles of the stained cells with water, the plates were dried at room temperature. The dye was dissolved by adding 100 μL/measuring point of a 10% acetic acid solution. […] The change of cell number, in percent, was calculated by normalization of the measured values to the absorption values of the zero-point plate (=0%) and the absorption of the untreated (0 μm) cells (=100%). The IC50 values were determined by means of a 4 parameter fit.

The test system is the same in assay [3]. Description: Proliferation Assay (HeLa+Paclitaxel). It is filed as cell-based. The following applies: 3 nM paclitaxel, test substance 92 hours; read-out: Biological Assay 3: Proliferation Assay (HeLa + Paclitaxel) IC50. As for the experimental part:
Proliferation Assay (HeLa+Paclitaxel):
Cultivated HeLa human cervical tumor cells (DSMZ ACC-57) were plated at a density of 3000 cells/well in a 96-well multititer plate in 200 μL of growth medium supplemented 10% fetal calf serum. After 24 hours, the cells of one plate (zero-point plate) were stained with crystal violet (see below). The medium of the other plates was supplemented with 3 nM of paclitaxel (Sigma-Aldrich) and the cells were incubated at 37° C. After 4 hours the test substances were added in various concentrations (0 μM, as well as in the range of 0.001-10 μM; the final concentration of the solvent dimethyl sulfoxide was adjusted to 0.1%) using a Hewlett-Packard HP D300 Digital Dispenser. The cells were incubated for another 92 hours at 37° C. in the presence of test substances. […] After three washing cycles of the fixed cells with water, the plates were dried at room temperature. The cells were stained by adding 100 μL/measuring point of a 0.1% crystal violet solution (pH 3.0). After three washing cycles of the stained cells with water, the plates were dried at room temperature. The dye was dissolved by adding 100 μL/measuring point of a 10% acetic acid solution. […] The change of cell number, in percent, was calculated by normalization of the measured values to the absorption values of the zero-point plate (=0%) and the 5 absorption of the untreated (0 μm) cells (=100%). The IC50 values were determined by means of a 4 parameter fit.

Assay [4] relates to Bub1 kinase (histone 2A phosphorylation). Description: H2A Formation-Assay (cell-based mechanistic assay, co-treatment with Nocodazole). The following applies: 16 h, Nocodazole 1 μg/ml together with test compound for 16 h; read-out: Biological Assay 4.1: H2A Formation IC50. As to the method: Biological Assay 4.1: Formation-Assay
Cell-Based Mechanistic Assay: Changes of Phosphorylation Status of Histone 2A by Inhibition of Kinase Activity of Bub1
This assay determines the suppression of histone 2A phosphorylation by a Bub1 kinase inhibitor during co-treatment with Nocodazole. 25000 cells (cells were ordered from ATCC) were seeded in 96 well plate for 5 h at 37° C. Cells were treated with Nocodazole (1 μg/ml) and varying concentrations (between 3 nM and 10 μM) of test compounds for 16h. Cells were fixed (20 min, Fixing solution R&D), washed three times with PBS and blocked with Odyssey blocking buffer before incubating with the primary antibody against phosphorylated H2A (5 μg/ml ABIN482721) overnight at […]. After washing, secondary IRDye-labeled antibody mix with cell stains was added for 1h and washed again with PBS. Plates were scanned with LiCor Odyssey Infrared Imager CLx at 800 nm for P-H2A and at 700 nm for cell stains Draq5/Sapphire. The quotient of 800 nm and 700 nm for Nocodazole only treated cells was set as 100% and the quotient of 800 nm and 700 nm of untreated cells was set as 0%. […] The IC50 values were determined by means of a 4 parameter fit.
(§1) Histone H2A is an immediate intracellular substrate of Bub1 kinase. Determination of the phosphorylation status of Histone H2A provides a direct measure of the intracellular activity of Bub1 kinase.

For assay [5], the system named is Bub1 kinase (pre-induced phospho-histone 2A). Description: H2A Abrogation-Assay (cell-based mechanistic assay, pre-treatment with Nocodazole). The following applies: Nocodazole 1 μg/ml 16 h, then test compound 1 h; read-out: Biological Assay 4.2: H2A Abrogation IC50. As for the experimental part:
Biological Assay 4.2: Abrogation-Assay
Cell-Based Mechanistic Assay: Changes of Phosphorylation Status of Pre-Induced Phospho-Histone 2A by Inhibition of Kinase Activity of Bub1
This assay measures the inhibition of histone 2A phosphorylation, which was induced by pre-treatment of the cells with Nocodazole, by a Bub1 kinase inhibitor. 25000 cells (cells were ordered from ATCC) were seeded in 96 well plate for 5 h at 37° C. Cells were treated with Nocodazole (1 μg/ml). After 16h varying concentrations (between 3 nM and 10 μM) of test compounds were added and the cells were incubated for another 1h. Cells were fixed (20 min, Fixing solution R&D), washed three times with PBS and blocked with Odyssey blocking buffer before incubating with the primary antibody against phosphorylated H2A (5 μg/ml ABIN482721) overnight at 2-8° C. After washing, secondary IRDye-labeled antibody mix with cell stains was added for 1h and washed again with PBS. Plates were scanned with LiCor Odyssey Infrared Imager CLx at 800 nm for P-H2A and at 700 nm for cell stains Draq5/Sapphire. The quotient of 800 nm and 700 nm for Nocodazole only treated cells was set as 100% and the quotient of 800 nm and 700 nm of untreated cells was set as 0%. […] The IC50 values were determined by means of a 4 parameter fit.
as §1

T1 sequence (O43683 704-1085): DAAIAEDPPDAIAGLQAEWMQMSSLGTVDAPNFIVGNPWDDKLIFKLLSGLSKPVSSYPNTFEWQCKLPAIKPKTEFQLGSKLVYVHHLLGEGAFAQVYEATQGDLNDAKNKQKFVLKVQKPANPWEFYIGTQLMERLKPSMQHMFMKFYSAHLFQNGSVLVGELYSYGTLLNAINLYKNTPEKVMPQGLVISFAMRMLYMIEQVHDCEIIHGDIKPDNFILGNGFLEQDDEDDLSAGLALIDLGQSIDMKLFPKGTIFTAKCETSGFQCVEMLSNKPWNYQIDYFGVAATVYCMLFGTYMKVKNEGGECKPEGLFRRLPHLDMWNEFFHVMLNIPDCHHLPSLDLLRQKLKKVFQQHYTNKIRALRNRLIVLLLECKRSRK

As to `CCOc1cc(F)c(Cn2nc(-c3ncc(OC)c(Nc4ccncc4)n3)c3ccccc32)c(F)c1` [Example 6-4-1, 2-[1-(4-ethoxy-2,6-difluorobenzyl)-1 H-indazol-3-yl]-5-methoxy-N-(pyridin-4-yl)pyrimidin-4-amine, reference compound], the IC50 is 52 nM in assay [1]; 2400 nM in assay [2]; 660 nM in assay [3]; 74 nM in assay [4]; 920 nM in assay [5].
On to `COc1cnc(-c2nn(Cc3c(F)cc(OCCO)cc3F)c3ccccc23)nc1Nc1cc(NC(C)=O)ncc1C` [Example 2-1-14, N-{4-[(2-{1-[2,6-difluoro-4-(2-hydroxyethoxy)benzyl]-1H-indazol-3-yl}-5-methoxypyrimidin-4-yl)amino]-5-methylpyridin-2-yl}acetamide], for which the IC50 in assay [1] is 420 nM; in assay [2], 1500 nM; in assay [3] it was 1100 nM; in assay [4], 39 nM; in assay [5] it was 11 nM.
Regarding `COc1cnc(-c2nn(Cc3c(F)cc(OCCO)cc3F)c3ccccc23)nc1Nc1ccncn1` [Example 2-1-13, 2-[3,5-difluoro-4-({3-[5-methoxy-4-(pyrimidin-4-ylamino)pyrimidin-2-yl]-1H-indazol-1-yl}methyl)phenoxy]ethanol], the IC50 was 5 nM in assay [1]; greater than 10000 nM in assay [2]; 510 nM in assay [3]; 18 nM in assay [4]; 2.7 nM in assay [5].
For the molecule `COc1cnc(-c2nn(Cc3c(F)cc(OCCO)cc3F)c3ccccc23)nc1Nc1ccnc(NC(C)=O)c1` [Example 2-1-4, N-{4-[(2-{1-[2,6-difluoro-4-(2-hydroxyethoxy)benzyl]-1H-indazol-3-yl}-5-methoxypyrimidin-4-yl)amino]pyridin-2-yl}acetamide], the IC50 in assay [1] was 8.3 nM; in assay [2], greater than 10000 nM; in assay [3], 100 nM; in assay [4] it was 8.2 nM; in assay [5], 150 nM.
On to `COc1cnc(-c2nn(Cc3c(F)cc(OCCO)cc3F)c3ccccc23)nc1Nc1cc(C)ncc1F` [Example 2-1-12, 2-{3,5-difluoro-4-[(3-{4-[(5-fluoro-2-methylpyridin-4-yl)amino]-5-methoxypyrimidin-2-yl}-1H-indazol-1-yl)methyl]phenoxy}ethanol], for which the IC50 is 33 nM in assay [1]; greater than 10000 nM in assay [2]; 420 nM in assay [3]; 6 nM in assay [4]; 11 nM in assay [5].
For `COc1cnc(-c2nn(Cc3c(F)cc(OCCCO)cc3F)c3ccccc23)nc1Nc1cc(C)ncc1C` [Example 2-3-1, 3-{4-[(3-{4-[(2,5-dimethylpyridin-4-yl)amino]-5-methoxypyrimidin-2-yl}-1 H-indazol-1-yl)methyl]-3,5-difluorophenoxy}propan-1-ol], the IC50 is 15 nM in assay [1]; greater than 10000 nM in assay [2]; 72 nM in assay [3]; 38 nM in assay [4]; 0.72 nM in assay [5].
`COc1cnc(-c2nn(Cc3c(F)cc(OCCO)cc3F)c3ccccc23)nc1Nc1ccnc(C)c1OC` [Example 2-1-18, 2-{3,5-difluoro-4-[(3-{5-methoxy-4-[(3-methoxy-2-methylpyridin-4-yl)amino]pyrimidin-2-yl}-1H-indazol-1-yl)methyl]phenoxy}ethanol]: the IC50 in assay [1] is 14 nM; in assay [2], 1400 nM; in assay [3] it was 51 nM; in assay [4], 35 nM; in assay [5], 2.1 nM.
On to `COc1cnc(-c2nn(Cc3c(F)cc(OCCO)cc3F)c3ccccc23)nc1Nc1ccncc1` [Example 6-1-1, 2-[3,5-difluoro-4-({3-[5-methoxy-4-(pyridin-4-ylamino)pyrimidin-2-yl]-1H-indazol-1-yl}methyl)phenoxy]ethanol, reference compound], for which the IC50 turned out to be 6.2 nM in assay [1]; 3200 nM in assay [2]; 430 nM in assay [3]; 200 nM in assay [4]; 5400 nM in assay [5].
For `COc1cnc(-c2nn(Cc3c(F)cc(OC[C@H](C)CO)cc3F)c3ccccc23)nc1Nc1ccnc(NC(C)=O)c1` [Example 2-3-6, N-[4-({2-[1-(2,6-difluoro-4-{[(2R)-3-hydroxy-2-methylpropyl]oxy}benzyl)-1H-indazol-3-yl]-5-methoxypyrimidin-4-yl}amino)pyridin-2-yl]acetamide] the same measures were 19 nM, greater than 10000 nM, 120 nM, 53 nM and 0.27 nM.
